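Cells were grown in 96-well plates and exposed to each compound for 48 hours at five concentrations; endpoints were interpolated linearly between bracketing concentrations, or set to the highest concentration if not reached. TGI: total growth inhibition.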
test system: ACHN renal; assay: DTP human tumour cell line panel, 48 h

| SMILES | TGI |
| --- | --- |
| N#CSc1nc[nH]c1C(N)=O | > 100 µM |
| CN(C)C(=O)NCCN1CCCCCc2ccccc21 | > 100 µM |
| CC1(C#N)CC(C)(C)C(/C=C2/CC(C)(C)C(/C=C3/OC(=N)CC3(C)C)=N2)=N1 (centres undefined) | 58.9 µM |
| Cc1cccc(/C=N/NC(=S)NCCc2ccccn2)n1 | > 74.5 µM |
| O=C(C(=O)N1CCc2ccccc21)c1c[nH]c2ccccc12 | > 10 µM |
| C=CCNC1=C2C[C@@H](C)C[C@@H](OC)[C@@H](OC(=O)CCCN)[C@H](C)/C=C(\C)[C@@H](OC(N)=O)[C@H](OC)/C=C\C=C(/C)C(=O)NC(=CC1=O)C2=O | 38.9 µM |
| C[C@]12CCC(=O)C=C1CC[C@@H]1C2CC[C@]2(C)c3nn(-c4ccc(F)cc4)nc3CC12 (some centres undefined) | > 100 µM |
| CCOC(=O)C(N)CSC(=O)NC (centres undefined) | 510 µM |
| CC(=O)N(C(=O)CC(=O)N/N=C\c1ccc(Br)c(N(CCC#N)CCC#N)c1)c1ccc(Cl)cc1 | > 100 µM |
| CCOC(=O)c1csc(NC(=O)C(C)N2CCCCC2)n1 (centres undefined) | > 100 µM |
| O=C1c2cc3c(cc2CC12Cc1cc4c(cc1C2=O)CCC4)CCCC3 (centres undefined) | > 100 µM |
| CC1(C)OCC2OC3(c4nc(C#N)c(N)o4)OC(C)(C)OC3C2O1 (centres undefined) | > 100 µM |
| COC(=O)C1=C(C)NC(C)=C(C(=O)OC)C1c1ccc(/[N+]([O-])=C/c2ccccc2)cc1 | 32.7 µM |
| CCN(CC)CCn1nc(N)c2nc3cc(Cl)ccc3nc21 | > 100 µM |
| COc1ccc(CCNC2=CC(=O)c3ncccc3C2=O)cc1OC | 19.8 µM |
| COc1ccc2c(c1)CCc1c-2[nH]c2ccc(OC)cc12 | > 100 µM |
| CCN(CC)/C(Cl)=C(Cl)\C(=C1\Nc2ccc(OC)cc21)[N+](=O)[O-] | > 100 µM |
| O=C(NCCCNC(=O)c1ccc2c(O)c(O)ccc2c1)c1ccc2c(O)c(O)ccc2c1 | 55.9 µM |
| COc1cc(/C=C2\C[C@H]3[C@@H]4CC=C5C[C@@H](O)CC[C@]5(C)[C@H]4CC[C@]3(C)C2=O)cc(OC)c1OC | > 100 µM |
| O=C1NC(=O)C(c2c[nH]c3cc(Br)ccc23)=C1c1cn(C(c2ccccc2)(c2ccccc2)c2ccccc2)cn1 | > 100 µM |
| Cn1ccc(C(=O)NCCOCCNC(=O)c2ccn(C)c(=O)c2O)c(O)c1=O | > 100 µM |
| CSC1=C(SC)SC(=C2SC3=C(SC(=C4SCCS4)S3)S2)S1 | > 100 µM |
| COn1cc(C=O)c2ccccc21 | > 100 µM |
| CCOC(=O)C1=C(Nc2cccc(OC)c2)OCC1=O | > 100 µM |
| C#CCn1ncc2c(SCc3ccccc3)ncnc21 | > 100 µM |
| CCC1OC2C(CC=C(C)C)=C3OC(C)(O)C(C)(CC)C(OC(=O)c4ccccc4)C3=C3OC(=O)C=C1C32 (centres undefined) | > 100 µM |
| CCN(CC)c1ccc2cc(-c3nnc(-c4ccccc4)o3)c(=O)oc2c1 | > 100 µM |
| CC1=CC(C2/C(=N/O)C=C(C)CC2(C)C)C(O)C(C)(C)C1 (centres undefined) | 34 µM |
| O=C(CC(c1ccccc1)N1CCCCC1)c1ccccc1 (centres undefined) | 30.7 µM |
| O=C(O)c1nc(-c2ccccn2)c(-c2ccccn2)nc1C(=O)O | 7.35 µM |

test system: COLO 205 colon; assay: DTP human tumour cell line panel, 48 h

| SMILES | TGI |
| --- | --- |
| N#CSc1nc[nH]c1C(N)=O | > 100 µM |
| CN(C)C(=O)NCCN1CCCCCc2ccccc21 | > 100 µM |
| CC1(C#N)CC(C)(C)C(/C=C2/CC(C)(C)C(/C=C3/OC(=N)CC3(C)C)=N2)=N1 (centres undefined) | 34.4 µM |
| Cc1cccc(/C=N/NC(=S)NCCc2ccccn2)n1 | > 100 µM |
| O=C(C(=O)N1CCc2ccccc21)c1c[nH]c2ccccc12 | > 10 µM |
| C=CCNC1=C2C[C@@H](C)C[C@@H](OC)[C@@H](OC(=O)CCCN)[C@H](C)/C=C(\C)[C@@H](OC(N)=O)[C@H](OC)/C=C\C=C(/C)C(=O)NC(=CC1=O)C2=O | 13.6 µM |
| C[C@]12CCC(=O)C=C1CC[C@@H]1C2CC[C@]2(C)c3nn(-c4ccc(F)cc4)nc3CC12 (some centres undefined) | > 100 µM |
| CCOC(=O)C(N)CSC(=O)NC (centres undefined) | 360 µM |
| CC(=O)N(C(=O)CC(=O)N/N=C\c1ccc(Br)c(N(CCC#N)CCC#N)c1)c1ccc(Cl)cc1 | > 100 µM |
| CCOC(=O)c1csc(NC(=O)C(C)N2CCCCC2)n1 (centres undefined) | > 100 µM |
| CC1(C)OCC2OC3(c4nc(C#N)c(N)o4)OC(C)(C)OC3C2O1 (centres undefined) | > 100 µM |
| Cc1cccc2c1Oc1cc(Cl)ccc1C2NC(=O)CCN1CCOCC1 (centres undefined) | > 100 µM |
| COC(=O)C1=C(C)NC(C)=C(C(=O)OC)C1c1ccc(/[N+]([O-])=C/c2ccccc2)cc1 | 35.1 µM |
| CCN(CC)CCn1nc(N)c2nc3cc(Cl)ccc3nc21 | > 100 µM |
| COc1ccc(CCNC2=CC(=O)c3ncccc3C2=O)cc1OC | 3.23 µM |
| COc1ccc2c(c1)CCc1c-2[nH]c2ccc(OC)cc12 | > 100 µM |
| CCN(CC)/C(Cl)=C(Cl)\C(=C1\Nc2ccc(OC)cc21)[N+](=O)[O-] | > 100 µM |
| O=C(NCCCNC(=O)c1ccc2c(O)c(O)ccc2c1)c1ccc2c(O)c(O)ccc2c1 | 50.6 µM |
| COc1cc(/C=C2\C[C@H]3[C@@H]4CC=C5C[C@@H](O)CC[C@]5(C)[C@H]4CC[C@]3(C)C2=O)cc(OC)c1OC | 54.9 µM |
| O=C1NC(=O)C(c2c[nH]c3cc(Br)ccc23)=C1c1cn(C(c2ccccc2)(c2ccccc2)c2ccccc2)cn1 | 27.4 µM |
| Cn1ccc(C(=O)NCCOCCNC(=O)c2ccn(C)c(=O)c2O)c(O)c1=O | > 100 µM |
| CSC1=C(SC)SC(=C2SC3=C(SC(=C4SCCS4)S3)S2)S1 | > 100 µM |
| COn1cc(C=O)c2ccccc21 | > 100 µM |
| CCOC(=O)C1=C(Nc2cccc(OC)c2)OCC1=O | > 100 µM |
| C#CCn1ncc2c(SCc3ccccc3)ncnc21 | > 100 µM |
| CCC1OC2C(CC=C(C)C)=C3OC(C)(O)C(C)(CC)C(OC(=O)c4ccccc4)C3=C3OC(=O)C=C1C32 (centres undefined) | 39.8 µM |
| CCN(CC)c1ccc2cc(-c3nnc(-c4ccccc4)o3)c(=O)oc2c1 | > 100 µM |
| CC1=CC(C2/C(=N/O)C=C(C)CC2(C)C)C(O)C(C)(C)C1 (centres undefined) | 36 µM |
| O=C(CC(c1ccccc1)N1CCCCC1)c1ccccc1 (centres undefined) | 37.9 µM |
| O=C(O)c1nc(-c2ccccn2)c(-c2ccccn2)nc1C(=O)O | 7.75 µM |

test system: DU-145 prostate; assay: DTP human tumour cell line panel, 48 h

| SMILES | TGI |
| --- | --- |
| N#CSc1nc[nH]c1C(N)=O | > 100 µM |
| CN(C)C(=O)NCCN1CCCCCc2ccccc21 | > 100 µM |
| CC1(C#N)CC(C)(C)C(/C=C2/CC(C)(C)C(/C=C3/OC(=N)CC3(C)C)=N2)=N1 (centres undefined) | > 100 µM |
| Cc1cccc(/C=N/NC(=S)NCCc2ccccn2)n1 | > 86.3 µM |
| O=C(C(=O)N1CCc2ccccc21)c1c[nH]c2ccccc12 | > 10 µM |
| C=CCNC1=C2C[C@@H](C)C[C@@H](OC)[C@@H](OC(=O)CCCN)[C@H](C)/C=C(\C)[C@@H](OC(N)=O)[C@H](OC)/C=C\C=C(/C)C(=O)NC(=CC1=O)C2=O | 38.3 µM |
| C[C@]12CCC(=O)C=C1CC[C@@H]1C2CC[C@]2(C)c3nn(-c4ccc(F)cc4)nc3CC12 (some centres undefined) | > 100 µM |
| CCOC(=O)C(N)CSC(=O)NC (centres undefined) | 597 µM |
| CC(=O)N(C(=O)CC(=O)N/N=C\c1ccc(Br)c(N(CCC#N)CCC#N)c1)c1ccc(Cl)cc1 | > 100 µM |
| CCOC(=O)c1csc(NC(=O)C(C)N2CCCCC2)n1 (centres undefined) | > 100 µM |
| O=C1c2cc3c(cc2CC12Cc1cc4c(cc1C2=O)CCC4)CCCC3 (centres undefined) | > 100 µM |
| CC1(C)OCC2OC3(c4nc(C#N)c(N)o4)OC(C)(C)OC3C2O1 (centres undefined) | > 100 µM |
| Cc1cccc2c1Oc1cc(Cl)ccc1C2NC(=O)CCN1CCOCC1 (centres undefined) | > 100 µM |
| COC(=O)C1=C(C)NC(C)=C(C(=O)OC)C1c1ccc(/[N+]([O-])=C/c2ccccc2)cc1 | > 100 µM |
| CCN(CC)CCn1nc(N)c2nc3cc(Cl)ccc3nc21 | > 100 µM |
| COc1ccc(CCNC2=CC(=O)c3ncccc3C2=O)cc1OC | 3.57 µM |

| SMILES | TGI |
| --- | --- |
| COc1ccc2c(c1)CCc1c-2[nH]c2ccc(OC)cc12 | > 100 µM |
| CCN(CC)/C(Cl)=C(Cl)\C(=C1\Nc2ccc(OC)cc21)[N+](=O)[O-] | > 100 µM |
| O=C(NCCCNC(=O)c1ccc2c(O)c(O)ccc2c1)c1ccc2c(O)c(O)ccc2c1 | > 100 µM |
| COc1cc(/C=C2\C[C@H]3[C@@H]4CC=C5C[C@@H](O)CC[C@]5(C)[C@H]4CC[C@]3(C)C2=O)cc(OC)c1OC | > 100 µM |
| O=C1NC(=O)C(c2c[nH]c3cc(Br)ccc23)=C1c1cn(C(c2ccccc2)(c2ccccc2)c2ccccc2)cn1 | 62.8 µM |
| Cn1ccc(C(=O)NCCOCCNC(=O)c2ccn(C)c(=O)c2O)c(O)c1=O | > 100 µM |
| CSC1=C(SC)SC(=C2SC3=C(SC(=C4SCCS4)S3)S2)S1 | > 100 µM |
| COn1cc(C=O)c2ccccc21 | > 100 µM |
| CCOC(=O)C1=C(Nc2cccc(OC)c2)OCC1=O | > 100 µM |
| C#CCn1ncc2c(SCc3ccccc3)ncnc21 | > 100 µM |
| CCC1OC2C(CC=C(C)C)=C3OC(C)(O)C(C)(CC)C(OC(=O)c4ccccc4)C3=C3OC(=O)C=C1C32 (centres undefined) | > 100 µM |
| CCN(CC)c1ccc2cc(-c3nnc(-c4ccccc4)o3)c(=O)oc2c1 | > 100 µM |
| CC1=CC(C2/C(=N/O)C=C(C)CC2(C)C)C(O)C(C)(C)C1 (centres undefined) | 29.1 µM |
| O=C(CC(c1ccccc1)N1CCCCC1)c1ccccc1 (centres undefined) | 32.3 µM |
| O=C(O)c1nc(-c2ccccn2)c(-c2ccccn2)nc1C(=O)O | 12.1 µM |

test system: HCC-2998 colon; assay: DTP human tumour cell line panel, 48 h

| SMILES | TGI |
| --- | --- |
| N#CSc1nc[nH]c1C(N)=O | > 100 µM |
| CN(C)C(=O)NCCN1CCCCCc2ccccc21 | > 100 µM |
| CC1(C#N)CC(C)(C)C(/C=C2/CC(C)(C)C(/C=C3/OC(=N)CC3(C)C)=N2)=N1 (centres undefined) | 93.3 µM |
| Cc1cccc(/C=N/NC(=S)NCCc2ccccn2)n1 | > 100 µM |
| O=C(C(=O)N1CCc2ccccc21)c1c[nH]c2ccccc12 | > 10 µM |
| C=CCNC1=C2C[C@@H](C)C[C@@H](OC)[C@@H](OC(=O)CCCN)[C@H](C)/C=C(\C)[C@@H](OC(N)=O)[C@H](OC)/C=C\C=C(/C)C(=O)NC(=CC1=O)C2=O | 32.9 µM |
| C[C@]12CCC(=O)C=C1CC[C@@H]1C2CC[C@]2(C)c3nn(-c4ccc(F)cc4)nc3CC12 (some centres undefined) | > 100 µM |
| CCOC(=O)C(N)CSC(=O)NC (centres undefined) | 644 µM |
| CC(=O)N(C(=O)CC(=O)N/N=C\c1ccc(Br)c(N(CCC#N)CCC#N)c1)c1ccc(Cl)cc1 | > 100 µM |
| CCOC(=O)c1csc(NC(=O)C(C)N2CCCCC2)n1 (centres undefined) | > 100 µM |
| O=C1c2cc3c(cc2CC12Cc1cc4c(cc1C2=O)CCC4)CCCC3 (centres undefined) | > 100 µM |
| CC1(C)OCC2OC3(c4nc(C#N)c(N)o4)OC(C)(C)OC3C2O1 (centres undefined) | > 100 µM |
| Cc1cccc2c1Oc1cc(Cl)ccc1C2NC(=O)CCN1CCOCC1 (centres undefined) | > 100 µM |
| COC(=O)C1=C(C)NC(C)=C(C(=O)OC)C1c1ccc(/[N+]([O-])=C/c2ccccc2)cc1 | > 100 µM |
| CCN(CC)CCn1nc(N)c2nc3cc(Cl)ccc3nc21 | > 100 µM |
| COc1ccc(CCNC2=CC(=O)c3ncccc3C2=O)cc1OC | 4.68 µM |
| COc1ccc2c(c1)CCc1c-2[nH]c2ccc(OC)cc12 | > 100 µM |
| CCN(CC)/C(Cl)=C(Cl)\C(=C1\Nc2ccc(OC)cc21)[N+](=O)[O-] | > 100 µM |
| O=C(NCCCNC(=O)c1ccc2c(O)c(O)ccc2c1)c1ccc2c(O)c(O)ccc2c1 | > 100 µM |
| COc1cc(/C=C2\C[C@H]3[C@@H]4CC=C5C[C@@H](O)CC[C@]5(C)[C@H]4CC[C@]3(C)C2=O)cc(OC)c1OC | 98.1 µM |
| O=C1NC(=O)C(c2c[nH]c3cc(Br)ccc23)=C1c1cn(C(c2ccccc2)(c2ccccc2)c2ccccc2)cn1 | 26.4 µM |
| Cn1ccc(C(=O)NCCOCCNC(=O)c2ccn(C)c(=O)c2O)c(O)c1=O | > 100 µM |
| CSC1=C(SC)SC(=C2SC3=C(SC(=C4SCCS4)S3)S2)S1 | > 100 µM |
